From US10442791B2, “DNA-PK inhibitors” (Vertex Pharmaceuticals Incorporated, priority 2012, dated 2019)

Tests used:
A172 = assay: Cell viability following irradiation (CellTiter-Glo), A172; type: cell-based; conditions: A172 (Glioblastoma), viability at 6 days
Procedure: (§1) To evaluate the radiosensitizing effects of compounds of the invention in combination with ionizing radiation (IR), a broad panel of cell lines across multiple tumor types and genetic backgrounds were tested. Cells were incubated with DMSO or compound 578 for 30 minutes and then exposed to various doses of radiation (0, 0.5, 1, 2, 4, 6, 8, and 16 Gy). Cell viability was assessed at 6 days using CellTiter-Glo® (Promega, Inc).

SK-MEL-5 = assay: Cell viability following irradiation (CellTiter-Glo), SK-MEL-5; type: cell-based; conditions: SK-MEL-5 (Melanoma), viability at 6 days
Procedure: as §1

HCT116 = assay: Cell viability following irradiation (CellTiter-Glo), HCT116; type: cell-based; conditions: HCT116 (Colorectal Cancer), viability at 6 days
Procedure: as §1

Miapaca2 = assay: Cell viability following irradiation (CellTiter-Glo), Miapaca2; type: cell-based; conditions: Miapaca2 (Pancreatic cancer), viability at 6 days
Procedure: as §1

DBTRG-05MG = assay: Cell viability following irradiation (CellTiter-Glo), DBTRG-05MG; type: cell-based; conditions: DBTRG-05MG (Glioblastoma), viability at 6 days
Procedure: as §1

A549 = assay: Cell viability following irradiation (CellTiter-Glo), A549; type: cell-based; conditions: A549 (Lung Cancer), viability at 6 days
Procedure: as §1

H460 = assay: Cell viability following irradiation (CellTiter-Glo), H460; type: cell-based; conditions: H460 (Lung Cancer), viability at 6 days
Procedure: as §1

DLD-1 = assay: Cell viability following irradiation (CellTiter-Glo), DLD-1; type: cell-based; conditions: DLD-1 (Colorectal Cancer), viability at 6 days
Procedure: as §1

H2009 = assay: Cell viability following irradiation (CellTiter-Glo), H2009; type: cell-based; conditions: H2009 (Lung Cancer), viability at 6 days
Procedure: as §1

DU4475 = assay: Cell viability following irradiation (CellTiter-Glo), DU4475; type: cell-based; conditions: DU4475 (Breast Cancer), viability at 6 days
Procedure: as §1

H1299 = assay: Cell viability following irradiation (CellTiter-Glo), H1299; type: cell-based; conditions: H1299 (Lung Cancer), viability at 6 days
Procedure: as §1

SMCC7721 = assay: Cell viability following irradiation (CellTiter-Glo), SMCC7721; type: cell-based; conditions: SMCC7721 (Hepatocellular Carcinoma), viability at 6 days
Procedure: as §1

[1] = tested on: OD26749 NSCLC subcutaneous xenograft; assay: In vivo efficacy, primary OD26749 NSCLC subcutaneous xenograft model with whole body IR; design: species or system Nude mice; conditions: Days 19 and 26, Day 30 post implantation
Procedure: The efficacy of compound 578 in vivo was evaluated in the primary OD26749 NSCLC subcutaneous xenograft model. This primary NSCLC tumor was obtained from a patient with a poorly differentiated adenocarcinoma and was serially passaged in SCID mice prior to this study. Nude mice were surgically implanted with 150-mg fragments of OD26749 tumor at passage 3 (P3). Whole body ionizing radiation (IR, 2 Gy/treatment) was administered using a dual Cesium 137 source and initiated when tumors reached approximately 350 mm^3. Tumor volumes were measured twice a week during the course of the study. Anti-tumor efficacy is expressed as % T/C (tumor/control) while regression is expressed as % T/Ti, the reduction in tumor volume compared to the starting tumor volume.
Compound 578 [in 16% Captisol®+HPMC/PVP] was administered orally (b.i.d. at 0 and 4 hours) at 25, 50, 100 mg/kg and (q.d.) 200 mg/kg on Day 19 post implantation. A single 2-Gy dose of whole body IR was given 15 minutes after compound administration. Control animals were given vehicle orally b.i.d. (0 and 4 hours). On Day 26 post implantation, the same regimens were repeated.

PC3 = assay: Cell viability following irradiation (CellTiter-Glo), PC3; type: cell-based; conditions: PC3 (Prostate Cancer), viability at 6 days
Procedure: as §1

SW900 = assay: Cell viability following irradiation (CellTiter-Glo), SW900; type: cell-based; conditions: SW900 (Lung Cancer), viability at 6 days
Procedure: as §1

OE19 = assay: Cell viability following irradiation (CellTiter-Glo), OE19; type: cell-based; conditions: OE19 (Gastric-Esophageal Cancer), viability at 6 days
Procedure: as §1

U87MG = assay: Cell viability following irradiation (CellTiter-Glo), U87MG; type: cell-based; conditions: U87MG (Glioblastoma), viability at 6 days
Procedure: as §1

SNU449 = assay: Cell viability following irradiation (CellTiter-Glo), SNU449; type: cell-based; conditions: SNU449 (Hepatocellular Carcinoma), viability at 6 days
Procedure: as §1

MCF7 = assay: Cell viability following irradiation (CellTiter-Glo), MCF7; type: cell-based; conditions: MCF7 (Breast Cancer), viability at 6 days
Procedure: as §1

glioblastoma cell lines = assay: Cell viability following irradiation, glioblastoma cell lines; type: cell-based; conditions: generally less sensitive to radiation alone
Procedure: as §1

Colo-205 = assay: Cell viability following irradiation (CellTiter-Glo), Colo-205; type: cell-based; conditions: Colo-205 (Colorectal Cancer), viability at 6 days
Procedure: as §1

Huh7 = assay: Cell viability following irradiation (CellTiter-Glo), Huh7; type: cell-based; conditions: Huh7 (Hepatocellular Carcinoma), viability at 6 days
Procedure: as §1

CNC(=O)c1ccnc2c([C@H](C)CNc3cc(-c4cnc(C)nc4)ncn3)cccc12 [Compound 578, (S)—N-methyl-8-(1-((2′-methyl-[4,5′-bipyrimidin]-6-yl)amino)propan-2-yl)quinoline-4-carboxamide]
EC50 IR (A172; compound 578 0.7 μM + IR): 1.7 Gy
EC50 IR (A172; compound 578 2.1 μM + IR): 0.9 Gy
EC50 IR (SK-MEL-5; compound 578 0.7 μM + IR): 2.7 Gy
EC50 IR (SK-MEL-5; compound 578 2.1 μM + IR): 2.3 Gy
EC50 IR (HCT116; compound 578 0.7 μM + IR): 0.5 Gy
EC50 IR (HCT116; compound 578 2.1 μM + IR): <0.5 Gy
EC50 IR (Miapaca2; compound 578 0.7 μM + IR): 2.4 Gy
EC50 IR (Miapaca2; compound 578 2.1 μM + IR): 1.9 Gy
EC50 IR (DBTRG-05MG; compound 578 0.7 μM + IR): 4.2 Gy
EC50 IR (DBTRG-05MG; compound 578 2.1 μM + IR): 5 Gy
EC50 IR (A549; compound 578 0.7 μM + IR): 0.5 Gy
EC50 IR (A549; compound 578 2.1 μM + IR): <0.5 Gy
EC50 IR (H460; compound 578 0.7 μM + IR): 0.9 Gy
EC50 IR (H460; compound 578 2.1 μM + IR): 0.7 Gy
EC50 IR (DLD-1; compound 578 0.7 μM + IR): 0.6 Gy
EC50 IR (DLD-1; compound 578 2.1 μM + IR): 0.7 Gy
EC50 IR (H2009; compound 578 0.7 μM + IR): 2.7 Gy
EC50 IR (H2009; compound 578 2.1 μM + IR): 1.5 Gy
EC50 IR (DU4475; compound 578 0.7 μM + IR): <0.5 Gy
EC50 IR (DU4475; compound 578 2.1 μM + IR): <0.5 Gy
EC50 IR (H1299; compound 578 0.7 μM + IR): 1.1 Gy
EC50 IR (H1299; compound 578 2.1 μM + IR): 1.5 Gy
EC50 IR (SMCC7721; compound 578 0.7 μM + IR): 1.7 Gy
EC50 IR (SMCC7721; compound 578 2.1 μM + IR): 0.6 Gy
% T/C (tumor growth inhibition) ([1]; 25 mg/kg b.i.d. oral + 2 Gy whole body IR): 25.6%
% T/C (tumor growth inhibition) ([1]; 50 mg/kg b.i.d. oral + 2 Gy whole body IR): 11.7%
% T/Ti (regression) ([1]; 100 mg/kg b.i.d. oral + 2 Gy whole body IR, P<0.001 compared to IR alone): −3.1%
% T/C (tumor growth inhibition) ([1]; 200 mg/kg q.d. oral + 2 Gy whole body IR): 6.5%
EC50 IR (PC3; compound 578 0.7 μM + IR): 0.5 Gy
EC50 IR (PC3; compound 578 2.1 μM + IR): <0.5 Gy
EC50 IR (SW900; compound 578 0.7 μM + IR): 4.2 Gy
EC50 IR (SW900; compound 578 2.1 μM + IR): 4.3 Gy
EC50 IR (OE19; compound 578 0.7 μM + IR): 0.5 Gy
EC50 IR (OE19; compound 578 2.1 μM + IR): <0.5 Gy
EC50 IR (U87MG; compound 578 0.7 μM + IR): >16 Gy
EC50 IR (U87MG; compound 578 2.1 μM + IR): >16 Gy
EC50 IR (SNU449; compound 578 0.7 μM + IR): 3.3 Gy
EC50 IR (SNU449; compound 578 2.1 μM + IR): 1.8 Gy
EC50 IR (MCF7; compound 578 0.7 μM + IR): 4.9 Gy
EC50 IR (MCF7; compound 578 2.1 μM + IR): 3.3 Gy
radiosensitization (glioblastoma cell lines): less radiosensitization
EC50 IR (Colo-205; compound 578 0.7 μM + IR): 0.7 Gy
EC50 IR (Colo-205; compound 578 2.1 μM + IR): 0.7 Gy
EC50 IR (Huh7; compound 578 0.7 μM + IR): 1.3 Gy
EC50 IR (Huh7; compound 578 2.1 μM + IR): 0.8 Gy
